Key:
[1] = system: mice; assay: Contraction of skin pores in mice after topical application; type: in vivo; conditions: 0.5 ml of 1% solution in 1,3-butylene glycol:ethanol=7:3 applied for 1 day, back biopsied 24 hours later, control group 65
Protocol: The compounds of Examples 1-24 were dissolved in solvent (1,3-butylene glycol:ethanol=7:3) to give 1% solution of test samples. To forty-six (46) mice, 0.5 ml of the test sample solution was applied for 1 day, 24 hours later, their back part was biopsied. The epidermis was separated, then soaked in 0.5% acetic acid, then fixed in 10% formalin, and cut vertically by […]. After dying with hematoxylin and eosin, the size of skin pore was measured using Mechanical eyepiece micrometer.

[2] = system: Human fibroblasts; assay: Collagen biosynthesis: procollagen type (I) ELISA in human fibroblasts; type: cell-based; conditions: 10^-4 M in serum-free medium, 24 hours, relative value, control group = 100
Protocol: Human fibroblasts were seeded into 24-well plates at 1×10^5 cells per well and then cultured to 90% of growth. The fibroblastes were then cultured in serum-free DMEM for 24 hours and treated with 10^−4 M of the hydroxamic acid derivatives of Examples 1-24, tocoperol and EGCG, in serum-free medium, and then incubated in a CO2 incubator for 24 hours.
For each supernatant, procollagen production was measured with procollagen type (I) ELISA kit. The results are shown in Table 2, in which collagen biosynthesis was evaluated as a relative value, in consideration that the value of the control group with no material treated is 100.

[3] = system: Human keratinocyte (HaCaT) cell line; assay: Antioxidative effect: lipid peroxidation assay (MDA, 4-HNE) in t-BHP-treated HaCaT cells; type: cell-based; design: unit not given here; conditions: control without treatment = 100
Protocol: This example illustrates the antioxidative effect of the hydroxamic acid derivatives obtained in Examples 1 to 24, in comparison with tocoperol and EGCG (EpiGalloCatechin Gallate). Human keratinocyte (HaCaT) cell line was divided into 1.0×10^6 per 60 mm dish, and was cultured for 1 day at 37° C., 5% CO2, using DMEM (FBS 10%) medium containing penicillin/streptomycin, and then was treated with 10^−4 mol % of hydroxamic acid derivatives. The same treatment was performed with tocoperol and EGCG, as positive controls, of the same concentration. The next day, HaCaT cells were treated with 4 mM of BHP (t-butyl hydroperoixe), and were cultured for 4 hours at 37° C., 5% CO2, and the cells were obtained. Lysis of the cells was performed on the cells by way of repeating the freeze/thawing process. The following experiment was performed according to the method presented in the assay kit.
Cabiochem Lipid peroxidation assay kit (Cat. No. 437634) was used as reagent in the present invention, and lipid peroxidation was measured using the principle that peroxidation products of ester which relate to long chain unsaturated fatty acid, such as malondialdehyde (MDA), and 4-hydroxyalkenal, i.e., 4-hydroxy-2(E)-nonenal (4-HNE), react with the reagent to form a stable compound at 586 nm.

[4] = HaCaT cells pretreated with 10^-4 mol % test material, next day 4 mM t-BHP for 4 hours, lipid peroxidation at 586 nm

| Structure (SMILES) | Size of skin pore [1] [µm] | Collagen biosynthesis (%) [2] [%] | MDA, HNE [3, 4] | MDA, HNE ([3]; HaCaT cells treated with 4 mM t-BHP alone for 4 hours) |
| --- | --- | --- | --- | --- |
| CC(C)Oc1ccc(C(=O)Nc2ccc(C(=O)NO)cc2)cc1OC(C)C [Example 3, N-[4-(N-hydroxycarbamoyl)phenyl][3,4-diisopropoxyphenyl]carboxyamide] | 54 | 122 | 211 |  |
| CCCCOc1ccc(C(=O)Nc2ccc(CC(=O)N(C)O)cc2)cc1OCCCC [Example 23] | 51 | 123 | 188 |  |
| CCCCOc1ccc(C(=O)Nc2ccc(CC(=O)NO)cc2)cc1OCCCC [Example 17, N-(4-((hydroxycarbamoyl)methyl)phenyl)-3,4-dibutoxy benzamide] | 56 | 123 | 200 |  |
| CCOc1ccc(C(=O)Nc2ccc(CC(=O)NO)cc2)cc1OCC [Example 14, N-(4-((hydroxycarbamyl)methyl)phenyl)-3,4-diethoxy benzamide] | 50 | 121 | 220 |  |
| COc1ccc(C(=O)Nc2ccc(CC(=O)N(C)O)cc2)cc1OC [Example 19] | 54 | 142 | 212 |  |
| CN(O)C(=O)c1ccc(NC(=O)c2ccc(OC(C)(C)C)c(OC(C)(C)C)c2)cc1 [Example 12, [4-((3,4-di-tert-butoxyphenyl)carbonylamino)phenyl]-N-hydroxy-N-methyl carboxyamide] | 54 | 123 | 176 |  |
| COc1ccc(C(=O)Nc2ccc(C(=O)NO)cc2)cc1OC [Example 1, N-[4-(N-hydroxycarbamoyl)phenyl][3,4-dimethoxyphenyl]carboxyamide] | 56 | 123 | 190 |  |
| COc1ccc(C(=O)Nc2ccc(C(=O)N(C)O)cc2)cc1OC [Example 7, [4-((3,4-dimethoxyphenyl)carbonylamino)phenyl]-N-hydroxy-N-methyl carboxyamide] | 55 | 111 | 220 |  |
| CC(C)(C)Oc1ccc(C(=O)Nc2ccc(C(=O)NO)cc2)cc1OC(C)(C)C [Example 6, N-[4-(N-hydroxycarbamoyl)phenyl][3,4-di-tert-butoxyphenyl]carboxyamide] | 54 | 135 | 231 |  |
| CCOc1ccc(C(=O)Nc2ccc(C(=O)N(C)O)cc2)cc1OCC [Example 8, [4-((3,4-diethoxyphenyl)carbonylamino)phenyl]-N-hydroxy-N-methyl carboxyamide] | 50 | 112 | 190 |  |
| CCCCOc1ccc(C(=O)Nc2ccc(C(=O)N(C)O)cc2)cc1OCCCC [Example 11, [4-((3,4-dibutoxyphenyl)carbonylamino)phenyl]-N-hydroxy-N-methylcarboxyamide] | 56 | 121 | 198 |  |
| CC(C)Oc1ccc(C(=O)Nc2ccc(CC(=O)N(C)O)cc2)cc1OC(C)C [Example 21] | 55 | 121 | 190 |  |
| CCCOc1ccc(C(=O)Nc2ccc(C(=O)NO)cc2)cc1OCCC [Example 4, N-[4-(N-hydroxycarbamoyl)phenyl][3,4-dipropoxyphenyl]carboxyamide] | 52 | 111 | 189 |  |
| CC(C)Oc1ccc(C(=O)Nc2ccc(C(=O)N(C)O)cc2)cc1OC(C)C [Example 9, [4-((3,4-diisopropoxyphenyl)carbonylamino)phenyl]-N-hydroxy-N-methyl carboxyamide] | 51 | 123 | 187 |  |
| CC(C)(C)Oc1ccc(C(=O)Nc2ccc(CC(=O)NO)cc2)cc1OC(C)(C)C [Example 18, N-(4-((hydroxycarbamoyl)methyl)phenyl)-3,4-di-tert-butoxy benzamide] | 57 | 122 | 232 |  |
| CCCOc1ccc(C(=O)Nc2ccc(C(=O)N(C)O)cc2)cc1OCCC [Example 10, [4-((3,4-dipropoxyphenyl)carbonylamino)phenyl]-N-hydroxy-N-methyl carboxyamide] | 52 | 126 | 140 |  |
| CCOc1ccc(C(=O)Nc2ccc(C(=O)NO)cc2)cc1OCC [Example 2, N-[4-(N-hydroxycarbamoyl)phenyl][3,4-diethoxyphenyl]carboxyamide] | 50 | 131 | 200 |  |
| COc1ccc(C(=O)Nc2ccc(CC(=O)NO)cc2)cc1OC [Example 13, N-(4-((hydroxycarbamoyl)methyl)phenyl)-3,4-dimethoxy benzamide] | 55 | 111 | 150 |  |
| CCCOc1ccc(C(=O)Nc2ccc(CC(=O)N(C)O)cc2)cc1OCCC [Example 22] | 52 | 122 | 188 |  |
| CC(C)(C)OO [t-BHP, t-butyl hydroperoixe, reference compound] |  |  |  | 320 |
| CN(O)C(=O)Cc1ccc(NC(=O)c2ccc(OC(C)(C)C)c(OC(C)(C)C)c2)cc1 [Example 24] | 50 | 131 | 197 |  |
| CC(C)Oc1ccc(C(=O)Nc2ccc(CC(=O)NO)cc2)cc1OC(C)C [Example 15, N-(4-((hydroxycarbamoyl)methyl)phenyl)-3,4-diisopropoxy benzamide] | 51 | 134 | 213 |  |
| CCCCOc1ccc(C(=O)Nc2ccc(C(=O)NO)cc2)cc1OCCCC [Example 5, N-[4-(N-hydroxycarbamoyl)phenyl][3,4-dibutoxyphenyl]carboxyamide] | 53 | 121 | 211 |  |
| CCCOc1ccc(C(=O)Nc2ccc(CC(=O)NO)cc2)cc1OCCC [Example 16, N-(4-((hydroxycarbamoyl)methyl)phenyl)-3,4-dipropoxy benzamide] | 52 | 131 | 199 |  |
| Cc1c(C)c2c(c(C)c1O)CC[C@@](C)(CCC[C@H](C)CCC[C@H](C)CCCC(C)C)O2 [Tocoperol, tocoperol, reference compound] | 64 | 113 | 250 |  |
| O=C(O[C@@H]1Cc2c(O)cc(O)cc2O[C@@H]1c1cc(O)c(O)c(O)c1)c1cc(O)c(O)c(O)c1 [EGCG, EpiGalloCatechin Gallate, reference compound] | 60 | 120 | 230 |  |
| CCOc1ccc(C(=O)Nc2ccc(CC(=O)N(C)O)cc2)cc1OCC [Example 20] | 51 | 123 | 196 |  |
